Changes are numbered by the printed parent chain. Where two headings read alike, the source gives them in different places.
How the values were obtained:
Type in all cases: cell-based
[1] = tested on: LNCaP FGC cells; experiment: Inhibition of proliferation of LNCaP cells (WST-8); conditions: Homo sapiens, LNCaP, 96 h
Method: The cells were cultured in a cell culture incubator with 5% CO2 at 37° C. overnight. […] On the sixth day, 96 well plates were taken out, and 20 μL of WST-8 (Beytime, C0040) reagent was added to each well.

[2] = tested on: VCaP cells; experiment: Inhibition of proliferation of VCaP cells (WST-8); conditions: Homo sapiens, read-out: IC50 for inhibiting the proliferation of VCaP cells
Outline: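 Proliferation was read by WST-8 on day nine. Cells were VCaP FGC, seeded at 15000 cells per well in 10% FBS DMEM and kept at 37° C with 5% CO2.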

[3] = biological target: T1, AR protein (Homo sapiens, UniProt P10275, T878A); experiment: Degradation of AR protein in LNCaP cells (Western blot); conditions: for inhibition at 0.01 µM: read-out: Degradation rates of the AR protein in LNCaP cells, 10 nM (%); for inhibition at 0.1 µM: read-out: Degradation rates of the AR protein in LNCaP cells, 100 nM (%)
T1 construct: degradation activity of the compounds disclosed in the present disclosure on AR protein in LNCaP cells; host or cells: LNCaP FGC
T1 sequence (P10275 1-920 T878A): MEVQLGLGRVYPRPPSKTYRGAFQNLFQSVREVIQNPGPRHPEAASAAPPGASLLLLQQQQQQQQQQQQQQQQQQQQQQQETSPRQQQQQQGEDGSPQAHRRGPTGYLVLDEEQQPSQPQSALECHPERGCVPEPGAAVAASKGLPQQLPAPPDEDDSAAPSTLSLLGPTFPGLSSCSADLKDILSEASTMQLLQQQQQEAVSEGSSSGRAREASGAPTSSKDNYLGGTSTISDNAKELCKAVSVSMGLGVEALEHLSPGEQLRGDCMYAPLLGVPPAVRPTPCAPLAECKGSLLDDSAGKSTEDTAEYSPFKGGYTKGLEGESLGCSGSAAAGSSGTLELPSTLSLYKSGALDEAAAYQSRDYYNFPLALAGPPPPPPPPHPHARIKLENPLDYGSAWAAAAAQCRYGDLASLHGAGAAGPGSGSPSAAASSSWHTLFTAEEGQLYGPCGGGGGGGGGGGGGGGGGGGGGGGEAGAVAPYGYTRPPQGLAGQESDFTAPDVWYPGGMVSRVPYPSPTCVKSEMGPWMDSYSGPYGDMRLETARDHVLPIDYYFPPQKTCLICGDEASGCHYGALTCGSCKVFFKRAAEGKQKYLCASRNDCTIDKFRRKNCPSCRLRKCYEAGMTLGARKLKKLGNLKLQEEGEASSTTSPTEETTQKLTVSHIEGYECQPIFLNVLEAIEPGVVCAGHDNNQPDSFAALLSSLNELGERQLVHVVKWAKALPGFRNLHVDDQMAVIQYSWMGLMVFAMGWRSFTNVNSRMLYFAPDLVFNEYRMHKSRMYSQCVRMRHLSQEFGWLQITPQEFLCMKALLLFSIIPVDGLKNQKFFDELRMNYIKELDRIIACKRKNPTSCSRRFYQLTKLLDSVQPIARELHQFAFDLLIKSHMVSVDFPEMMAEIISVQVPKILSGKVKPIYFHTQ
Outline: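 Percent AR degradation was derived from GAPDH-normalised Western blot band intensities (infrared detection) in LNCaP lysates.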

[4] = biological target: T2, AR protein (Homo sapiens, UniProt P10275); experiment: Degradation of AR protein in VCaP cells (Western blot); conditions: 8 hours; for inhibition at 0.01 µM: compound at 10 nM, read-out: Degradation rate of the AR protein in VCaP cells, 10 nM (%); for inhibition at 0.1 µM: compound at 100 nM, read-out: Degradation rate of the AR protein in VCaP cells, 100 nM (%)
T2 construct: degradation activity of the compounds disclosed in the present disclosure on AR protein in VCaP cells; host or cells: VCaP
T2 sequence (P10275 1-920): T1 sequence (P10275 1-920 T878A) with A878T
Outline: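 Western blot readout: AR band grayscale normalised to GAPDH, used to derive degradation rate. Lysates came from VCaP cells exposed to compound for 8 h, with solvent controls run in parallel.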

[5] = LNCaP FGC cells, 96 hours, WST-8 absorbance at 450 nm, read-out: IC50 for inhibiting the proliferation of LNCaP cells
[6] = VCaP cells, 168 hours, WST-8 absorbance at 450 nm
[7] = LNCaP cells, compound 10 nM, 8 hours, Western blot grayscale, GAPDH internal reference
[8] = LNCaP cells, compound 100 nM, 8 hours, Western blot grayscale, GAPDH internal reference
[9] = read-out: IC50 for inhibiting the proliferation of LNCaP cells, LNCaP FGC cells, 96 hours, WST-8 absorbance at 450 nm

For `N#Cc1ccc(O[C@H]2CC[C@H](NC(=O)c3ccc(N4CCC(F)(CN5CCC6(CC5)COc5c6ccc6c5CN(C5CCC(=O)NC5=O)C6=O)CC4)cn3)CC2)cc1Cl` (stereo partly drawn) [Compound 260], the IC50 [1, 5] was 4 nM, the IC50 [2, 6] was 1 nM and the inhibition at 0.01 µM [3, 7] was 13%. The inhibition at 0.1 µM [3, 8] was 9%, the inhibition at 0.01 µM [4] was 15% and the inhibition at 0.1 µM [4] was 74%.
`N#Cc1ccc(O[C@H]2CC[C@H](NC(=O)c3ccc(N4CC[C@@H](CN5CCC6(CC5)COc5cc7c(cc56)C(=O)N(C5CCC(=O)NC5=O)C7=O)C4)nn3)CC2)cc1Cl` (stereo partly drawn) [Compound 57] was tested, and the IC50 [1, 5] was 1360 nM, the IC50 [2, 6] was 38 nM and the inhibition at 0.01 µM [3, 7] was 45%. For the same compound, the inhibition at 0.1 µM [3, 8] was 72%, the inhibition at 0.01 µM [4] was 66% and the inhibition at 0.1 µM [4] was 80%.
For `COc1cc(OC2C(C)(C)C(NC(=O)c3ccc(N4CCC(CN5CCC6(CC5)COc5cc7c(cc56)C(=O)N(C5CCC(=O)NC5=O)C7=O)CC4)cc3)C2(C)C)ccc1C#N` (stereo not drawn) [Compound 280], the IC50 [1, 5] was 9250 nM, the IC50 [2, 6] was 45 nM and the inhibition at 0.01 µM [3, 7] was 36%. The inhibition at 0.1 µM [3, 8] was 52%, the inhibition at 0.01 µM [4] was 15% and the inhibition at 0.1 µM [4] was 77%.
`N#Cc1ccc(O[C@H]2CC[C@H](NC(=O)c3ccc(N4CCC(CN5CCC6(CC5)COc5cc7c(cc56)C(=O)N(C5CCC(=O)NC5=O)C7=O)CC4)nn3)CC2)cc1Cl` (stereo partly drawn) [Compound 56] gave an IC50 [1, 5] of 350 nM, an IC50 [2, 6] of 60 nM and an inhibition at 0.01 µM [3, 7] of 44%. For the same compound, the inhibition at 0.1 µM [3, 8] was 77%, the inhibition at 0.01 µM [4] was 79% and the inhibition at 0.1 µM [4] was 88%.
In the case of `N#Cc1ccc(O[C@H]2CC[C@H](NC(=O)c3ccc(N4CCC5(CCC(N6CCC7(CCc8cc9c(cc8O7)C(=O)N(C7CCC(=O)NC7=O)C9=O)CC6)CC5)CC4)nn3)CC2)cc1Cl` (stereo partly drawn) [Compound 30], the IC50 [1, 5] is reported as 1900 nM, the IC50 [2, 6] is reported as 850 nM and the inhibition at 0.01 µM [3, 7] is reported as 28%. The inhibition at 0.1 µM [3, 8] was 62%, the inhibition at 0.01 µM [4] was 39% and the inhibition at 0.1 µM [4] was 64%.
For `COc1cc(O[C@H]2C(C)(C)[C@H](NC(=O)c3ccc(N4CCC(C)(CN5CCC6(CCc7cc8c(cc7O6)CN(C6CCC(=O)NC6=O)C8=O)CC5)CC4)cc3)C2(C)C)ccc1C#N` (stereo partly drawn) [Compound 281], the IC50 [1, 5] was 2140 nM, the IC50 [2, 6] was 4 nM and the inhibition at 0.01 µM [3, 7] was 20%. For the same compound, the inhibition at 0.1 µM [3, 8] was 56%, the inhibition at 0.01 µM [4] was -11% and the inhibition at 0.1 µM [4] was 60%.
For `COc1cc(O[C@H]2C(C)(C)[C@H](NC(=O)c3ccc(N4CCC(CN5CC6(CCc7ccc8c(c7O6)C(=O)N(C6CCC(=O)NC6=O)C8=O)C5)CC4)cc3)C2(C)C)ccc1C#N` (stereo partly drawn) [Compound 278], the IC50 [1, 5] was 60000 nM, the IC50 [2, 6] was 9200 nM and the inhibition at 0.01 µM [3, 7] was -3%. The inhibition at 0.1 µM [3, 8] was 34%, the inhibition at 0.01 µM [4] was -30% and the inhibition at 0.1 µM [4] was -16%.
Work on `N#Cc1ccc(O[C@H]2CC[C@H](NC(=O)c3ccc(N4CCC(CN5CC6(CCc7cc8c(cc7O6)C(=O)N(C6CCC(=O)NC6=O)C8)C5)CC4)nn3)CC2)cc1Cl` (stereo partly drawn) [Compound 8] yielded an IC50 [1, 5] of 2090 nM, an IC50 [2, 6] of 1 nM and an inhibition at 0.01 µM [3, 7] of 78%. For the same compound, the inhibition at 0.1 µM [3, 8] was 67%, the inhibition at 0.01 µM [4] was 24% and the inhibition at 0.1 µM [4] was 76%.
Compound `N#Cc1ccc(O[C@H]2CC[C@H](NC(=O)c3ccc(N4CCC(F)(CN5CCC6(CC5)COc5ccc7c(c5C6)C(=O)N(C5CCC(=O)NC5=O)C7)CC4)nn3)CC2)cc1Cl` (stereo partly drawn) [Compound 147] has an IC50 [1, 5] of 17000 nM, an IC50 [2, 6] of 2990 nM and an inhibition at 0.01 µM [3, 7] of -3%. The inhibition at 0.1 µM [3, 8] was 14%, the inhibition at 0.01 µM [4] was 24% and the inhibition at 0.1 µM [4] was 47%.
`N#Cc1ccc(O[C@H]2CC[C@H](NC(=O)c3ccc(N4CC(N5CCC6(CC5)COc5cc7c(cc56)C(=O)N(C5CCC(=O)NC5=O)C7=O)C4)nn3)CC2)cc1Cl` (stereo partly drawn) [Compound 49] showed an IC50 [1, 9] of 2810 nM, an IC50 ([2]; VCaP, 168 h) of 4000 nM and an inhibition at 0.01 µM ([3]; LNCaP, 8 h) of 24%. For the same compound, the inhibition at 0.1 µM ([3]; LNCaP, 8 h) was 36%, the inhibition at 0.01 µM [4] was 24% and the inhibition at 0.1 µM [4] was 61%.
`N#Cc1ccc(O[C@H]2CC[C@H](NC(=O)c3ccc(N4CC(N5CC6(CCc7cc8c(cc7O6)C(=O)N(C6CCC(=O)NC6=O)C8=O)C5)C4)nn3)CC2)cc1Cl` (stereo partly drawn) [Compound 5] showed an IC50 [1, 9] of 710 nM, an IC50 ([2]; VCaP, 168 h) of 4500 nM and an inhibition at 0.01 µM ([3]; LNCaP, 8 h) of 51%. The inhibition at 0.1 µM ([3]; LNCaP, 8 h) was 35%, the inhibition at 0.01 µM [4] was 41% and the inhibition at 0.1 µM [4] was 51%.
`CC1(CN2CCC3(CC2)COc2c3ccc3c2CN(C2CCC(=O)NC2=O)C3=O)CCN(c2ccc(C(=O)N[C@H]3CC[C@H](Oc4ccc(C#N)c(Cl)c4)CC3)nc2)CC1` (stereo partly drawn) [Compound 259] showed an IC50 [1, 5] of 73 nM, an IC50 [2, 6] of 1.2 nM and an inhibition at 0.01 µM [3, 7] of -16%. The inhibition at 0.1 µM [3, 8] was 44%, the inhibition at 0.01 µM [4] was 33% and the inhibition at 0.1 µM [4] was 78%.
`N#Cc1ccc(O[C@H]2CC[C@H](NC(=O)c3ccc(N4CCC5(CCC(N6CCC7(CCc8ccc9c(c8O7)CN(C7CCC(=O)NC7=O)C9=O)CC6)CC5)CC4)nn3)CC2)cc1Cl` (stereo partly drawn) [Compound 150] was tested, and the IC50 [1, 5] was 3130 nM, the IC50 [2, 6] was 3340 nM and the inhibition at 0.01 µM [3, 7] was 52%. It also gave an inhibition at 0.1 µM [3, 8] of 35%, an inhibition at 0.01 µM [4] of 65% and an inhibition at 0.1 µM [4] of 86%.
`COc1cc(O[C@H]2C(C)(C)[C@H](NC(=O)c3ccc(N4CCC(C)(CN5CCC6(CCc7cc8c(cc7O6)C(=O)N(C6CCC(=O)NC6=O)C8=O)CC5)CC4)cc3)C2(C)C)ccc1C#N` (stereo partly drawn) [Compound 287] gave an IC50 [1, 5] of 70500 nM, an IC50 [2, 6] of 310 nM and an inhibition at 0.01 µM [3, 7] of 28%. The inhibition at 0.1 µM [3, 8] was 51%, the inhibition at 0.01 µM [4] was -31% and the inhibition at 0.1 µM [4] was 13%.
With `COc1cc(O[C@H]2CC[C@H](NC(=O)c3cnc(N4CCC(CN5CCC6(CC5)COc5c6ccc6c5C(=O)N(C5CCC(=O)NC5=O)C6=O)(OC)CC4)nc3)CC2)ccc1C#N` (stereo partly drawn) [Compound 220] the IC50 [1, 5] was 64 nM, the IC50 [2, 6] was 51 nM and the inhibition at 0.01 µM [3, 7] was 32%. The inhibition at 0.1 µM [3, 8] was 63%, the inhibition at 0.01 µM [4] was 22% and the inhibition at 0.1 µM [4] was 78%.

From patent publication US20260234157A1, “COMPOUND AND METHOD FOR TARGETED DEGRADATION OF ANDROGEN RECEPTOR” (Gan & Lee Pharmaceuticals Co., Ltd., priority 2023, published 2026)
